Measurements reported in the supplement of paper PMC10307832.

Tests used:
Experiment in all cases: relative viability (nuclei count vs DMSO), 5 days (fraction); higher = more cells survive
Veliparib + Trametinib = compound: C[C@]1(c2nc3c(C(N)=O)cccc3[nH]2)CCCN1 [Veliparib] + CC(=O)Nc1cccc(-n2c(=O)n(C3CC3)c(=O)c3c(Nc4ccc(I)cc4F)n(C)c(=O)c(C)c32)c1 [Trametinib] (partner 0.02 µM)
Outline: (§1)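 Values are medians from duplicate plates. Each reflects relative viability, defined as the nuclei count of treated wells over that of vehicle wells. Lung cancer cell lines in 1536-well plates were pin-tool dosed one day after seeding with one drug alone or with a fixed anchor-drug dose plus five library-drug doses (not always all listed) in √10 steps, then fixed, stained and imaged at 4× after 5 days.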

[1] = compound: COC1=CC=C(C=C1)CN2C=CC3=C2C=C(C=C3)C(=O)NO + O=C(c1cc(Cc2n[nH]c(=O)c3ccccc23)ccc1F)N1CCN(C(=O)C2CC2)CC1 [Olaparib] (partner 8 µM)
Outline: as §1

Veliparib + Crizotinib = compound: C[C@]1(c2nc3c(C(N)=O)cccc3[nH]2)CCCN1 [Veliparib] + C[C@@H](Oc1cc(-c2cnn(C3CCNCC3)c2)cnc1N)c1c(Cl)ccc(F)c1Cl [Crizotinib] (partner 1 µM)
Outline: as §1

Veliparib + OSI-027 = compound: C[C@]1(c2nc3c(C(N)=O)cccc3[nH]2)CCCN1 [Veliparib] + COc1cccc2cc(-c3nc([C@H]4CC[C@H](C(=O)O)CC4)n4ncnc(N)c34)[nH]c12 [OSI-027] (partner 0.5 µM)
Outline: as §1

Cell Line	relative viability (Veliparib + Trametinib; first compound 0.06325 µM)	relative viability (Veliparib + Trametinib; first compound 0.2 µM)	relative viability (Veliparib + Trametinib; first compound 0.6325 µM)	relative viability (Veliparib + Trametinib; first compound 2 µM)	relative viability ([1]; first compound 0.253 µM)	relative viability ([1]; first compound 0.8 µM)	relative viability ([1]; first compound 2.53 µM)	relative viability ([1]; first compound 8 µM)	relative viability (Veliparib + Crizotinib; first compound 0.02 µM)	relative viability (Veliparib + Crizotinib; first compound 0.06325 µM)	relative viability (Veliparib + Crizotinib; first compound 0.2 µM)	relative viability (Veliparib + Crizotinib; first compound 0.6325 µM)	relative viability (Veliparib + Crizotinib; first compound 2 µM)	relative viability (Veliparib + OSI-027; first compound 0.02 µM)	relative viability (Veliparib + OSI-027; first compound 0.06325 µM)	relative viability (Veliparib + OSI-027; first compound 0.2 µM)	relative viability (Veliparib + OSI-027; first compound 0.6325 µM)	relative viability (Veliparib + OSI-027; first compound 2 µM)	relative viability (Veliparib + Trametinib; first compound 0.02 µM)	relative viability ([1]; first compound 0.08 µM)
EKVX	0.317	0.329	0.245	0.331	0.802	0.739	0.868	0.758	0.65	0.744	1.04	0.977	0.913	0.629	0.646	0.63	0.639	0.675	–	–
LCLC-103H	0.606	0.668	0.74	0.718	0.777	0.773	0.781	0.708	1.1	0.982	1.02	0.875	1.09	0.464	0.434	0.462	0.466	0.5	0.764	0.743
LU99A	0.536	0.566	0.537	0.571	0.277	0.262	0.252	0.26	0.604	0.527	0.46	0.44	0.625	0.297	0.303	0.27	0.266	0.323	0.552	–
NCI-H520	0.68	0.721	0.646	0.705	0.362	0.327	0.339	0.286	0.808	0.698	0.697	0.713	0.836	0.224	0.309	0.276	0.231	0.234	0.749	0.342
COR-L23	0.609	0.501	0.539	0.613	0.382	0.292	0.369	0.286	0.637	0.605	0.718	0.584	0.651	0.707	0.738	0.841	0.57	0.77	0.47	0.256
NCI-H1437	0.527	0.514	0.502	0.497	0.635	0.626	0.676	0.618	0.902	0.929	0.9	0.81	0.834	0.694	0.959	0.878	0.759	0.844	0.502	0.603
HARA	–	0.949	0.796	0.798	0.835	1.09	0.711	0.762	1.03	0.996	0.954	0.848	1.06	0.508	0.495	0.465	0.433	0.485	0.745	–
NCI-H1666	0.861	0.782	0.754	0.926	0.737	0.745	0.682	0.818	0.94	0.826	1.03	0.995	1.07	0.938	0.791	0.763	0.806	0.848	0.84	0.746
CAL-12T	0.378	0.328	0.256	0.374	0.675	0.709	0.735	0.649	0.702	0.542	0.589	0.616	0.645	0.62	0.629	0.604	0.584	0.657	0.42	0.674
HCC-366	0.312	0.384	0.327	0.42	0.338	0.371	0.375	0.292	0.592	0.38	0.543	0.401	0.419	0.961	0.752	0.89	0.838	0.915	0.375	0.237
NCI-H1975	0.335	0.329	0.344	0.331	0.815	0.697	0.678	0.785	0.964	1.12	0.977	0.93	0.89	0.715	0.674	0.676	0.677	0.68	0.339	0.77
NCI-H460	0.0956	0.1	0.109	0.202	0.457	0.401	0.465	0.397	–	0.869	0.934	0.734	1.02	0.677	0.63	0.621	0.583	0.632	0.185	0.426
NCI-H2170	1.02	1.01	0.901	0.935	0.556	0.635	0.648	0.523	1.23	1.24	1.21	1.14	1.14	0.771	0.748	0.741	0.683	0.617	0.872	0.55
NCI-H1355	0.282	0.438	0.422	0.447	0.807	0.773	0.775	0.727	–	1.03	0.996	0.986	0.955	–	0.323	0.448	0.357	0.355	0.368	0.419
NCI-H1755	0.763	0.812	0.741	0.768	0.89	0.831	0.955	0.867	0.84	0.853	0.794	0.832	0.805	0.767	0.713	0.683	0.586	0.645	0.821	0.77
HCC-78	0.701	0.869	0.617	0.669	0.776	0.815	0.968	0.535	0.342	0.3	0.409	0.383	0.352	0.4	0.364	0.339	0.402	0.423	0.84	0.748
NCI-H2405	–	0.64	0.578	0.745	–	0.85	0.887	0.799	0.845	0.788	0.802	0.815	0.909	0.547	0.595	0.619	0.654	0.365	0.627	0.649
NCI-H2085	0.494	0.615	0.532	0.556	0.723	0.842	0.777	0.768	0.9	0.805	0.702	0.738	0.809	–	0.721	0.629	0.713	0.675	0.553	0.803
LXF-289	0.691	0.668	0.681	0.657	1.05	1.11	1.11	1.11	0.784	0.777	0.818	0.727	0.83	0.836	0.781	0.799	0.711	0.759	0.671	–
NCI-H1650	0.374	0.58	0.497	0.508	0.813	0.775	0.762	0.78	–	0.899	1.11	0.81	0.919	–	0.501	0.691	0.502	0.561	0.335	0.753
EPLC-272H	0.303	0.297	0.268	0.319	0.716	0.981	0.916	0.686	–	0.798	0.855	0.941	0.904	0.227	0.273	0.265	0.26	0.344	–	–
NCI-H647	0.451	0.483	0.478	0.481	0.537	0.422	0.495	0.547	1.07	1.01	1.23	1.03	0.907	0.662	0.479	0.618	0.605	0.648	0.502	0.557
NCI-H2347	0.254	0.26	0.364	0.288	0.53	0.651	0.67	0.524	0.798	0.839	0.678	0.652	0.616	0.416	0.377	0.473	0.206	0.347	0.294	0.53
NCI-H1792	0.411	0.41	0.438	0.401	0.578	0.445	0.447	0.561	0.98	0.919	0.942	0.93	0.939	0.738	0.708	0.73	0.707	0.664	0.499	0.438
A-427	0.727	0.801	0.722	0.875	–	0.71	0.711	0.724	0.884	0.837	0.864	0.83	0.836	–	0.414	0.485	0.456	0.463	0.792	0.251
NCI-H2009	0.291	0.316	0.302	0.33	0.694	0.678	0.643	0.658	1.1	0.934	1.05	1.03	1.03	0.63	0.645	0.672	0.586	0.672	0.289	0.682
NCI-H1993	0.63	0.519	0.425	0.552	1.31	1.25	1.06	0.885	0.836	0.822	0.815	0.787	0.771	0.592	0.531	0.562	0.585	0.51	–	0.699
